Patent US20210116454A1, “METHODS FOR TREATING A HEMATOLOGICAL CANCER AND THE USE OF COMPANION BIOMARKERS FOR 2-(2,6-DIOXOPIPERIDIN-3-YL)-4-((2-FLUORO-4-((3-MORPHOLINOAZETIDIN-1-YL)METHYL)BENZYL)AMINO)ISOINDOLINE-1,3-DIONE” (CELGENE CORPORATION, priority 2019, published 2021)
Read-outs that look alike come from different tables or passages of the source.

Tests used:
Format in all cases: cell-based
[1] = molecular target: T1, ZFP91 (Homo sapiens, UniProt Q96JP5+Q96SW2); assay: ePL-tagged substrate degradation kinetics in DF15 cells (enantiomer comparison); set-up: ZFP91 Y-constant: scale not given here; settings: for DC50: read-out: ZFP91 EC50
T1 construct: expressed in transfected cells; host or cells: DF15 cells
T1 sequence (Q96JP5 whole entry): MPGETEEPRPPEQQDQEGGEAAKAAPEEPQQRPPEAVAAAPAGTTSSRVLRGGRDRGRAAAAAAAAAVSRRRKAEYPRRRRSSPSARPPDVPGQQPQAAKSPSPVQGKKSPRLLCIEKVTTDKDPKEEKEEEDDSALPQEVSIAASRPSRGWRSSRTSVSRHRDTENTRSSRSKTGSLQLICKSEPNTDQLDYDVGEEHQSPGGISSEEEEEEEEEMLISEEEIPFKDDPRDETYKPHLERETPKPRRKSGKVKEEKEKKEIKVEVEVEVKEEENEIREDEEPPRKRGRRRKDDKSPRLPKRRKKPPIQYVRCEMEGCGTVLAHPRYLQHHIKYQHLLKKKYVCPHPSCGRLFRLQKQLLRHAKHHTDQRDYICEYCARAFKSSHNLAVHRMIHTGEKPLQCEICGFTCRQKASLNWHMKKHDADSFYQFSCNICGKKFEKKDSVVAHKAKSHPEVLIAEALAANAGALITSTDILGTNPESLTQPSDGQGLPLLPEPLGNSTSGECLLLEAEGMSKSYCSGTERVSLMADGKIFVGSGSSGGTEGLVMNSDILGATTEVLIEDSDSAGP
T1 sequence (Q96SW2 whole entry): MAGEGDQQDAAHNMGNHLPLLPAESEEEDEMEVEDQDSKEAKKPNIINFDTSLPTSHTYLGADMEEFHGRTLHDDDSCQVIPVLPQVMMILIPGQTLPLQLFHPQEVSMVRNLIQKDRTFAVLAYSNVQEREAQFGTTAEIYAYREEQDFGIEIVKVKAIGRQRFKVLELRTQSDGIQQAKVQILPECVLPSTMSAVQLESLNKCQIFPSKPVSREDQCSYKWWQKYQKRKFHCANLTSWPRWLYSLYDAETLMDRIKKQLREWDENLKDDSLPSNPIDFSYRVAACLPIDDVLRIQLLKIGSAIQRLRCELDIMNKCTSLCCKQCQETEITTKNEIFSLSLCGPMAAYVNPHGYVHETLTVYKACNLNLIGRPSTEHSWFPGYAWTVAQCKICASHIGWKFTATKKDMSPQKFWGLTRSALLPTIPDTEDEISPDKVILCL
T1 sequence (Q16531 whole entry partner): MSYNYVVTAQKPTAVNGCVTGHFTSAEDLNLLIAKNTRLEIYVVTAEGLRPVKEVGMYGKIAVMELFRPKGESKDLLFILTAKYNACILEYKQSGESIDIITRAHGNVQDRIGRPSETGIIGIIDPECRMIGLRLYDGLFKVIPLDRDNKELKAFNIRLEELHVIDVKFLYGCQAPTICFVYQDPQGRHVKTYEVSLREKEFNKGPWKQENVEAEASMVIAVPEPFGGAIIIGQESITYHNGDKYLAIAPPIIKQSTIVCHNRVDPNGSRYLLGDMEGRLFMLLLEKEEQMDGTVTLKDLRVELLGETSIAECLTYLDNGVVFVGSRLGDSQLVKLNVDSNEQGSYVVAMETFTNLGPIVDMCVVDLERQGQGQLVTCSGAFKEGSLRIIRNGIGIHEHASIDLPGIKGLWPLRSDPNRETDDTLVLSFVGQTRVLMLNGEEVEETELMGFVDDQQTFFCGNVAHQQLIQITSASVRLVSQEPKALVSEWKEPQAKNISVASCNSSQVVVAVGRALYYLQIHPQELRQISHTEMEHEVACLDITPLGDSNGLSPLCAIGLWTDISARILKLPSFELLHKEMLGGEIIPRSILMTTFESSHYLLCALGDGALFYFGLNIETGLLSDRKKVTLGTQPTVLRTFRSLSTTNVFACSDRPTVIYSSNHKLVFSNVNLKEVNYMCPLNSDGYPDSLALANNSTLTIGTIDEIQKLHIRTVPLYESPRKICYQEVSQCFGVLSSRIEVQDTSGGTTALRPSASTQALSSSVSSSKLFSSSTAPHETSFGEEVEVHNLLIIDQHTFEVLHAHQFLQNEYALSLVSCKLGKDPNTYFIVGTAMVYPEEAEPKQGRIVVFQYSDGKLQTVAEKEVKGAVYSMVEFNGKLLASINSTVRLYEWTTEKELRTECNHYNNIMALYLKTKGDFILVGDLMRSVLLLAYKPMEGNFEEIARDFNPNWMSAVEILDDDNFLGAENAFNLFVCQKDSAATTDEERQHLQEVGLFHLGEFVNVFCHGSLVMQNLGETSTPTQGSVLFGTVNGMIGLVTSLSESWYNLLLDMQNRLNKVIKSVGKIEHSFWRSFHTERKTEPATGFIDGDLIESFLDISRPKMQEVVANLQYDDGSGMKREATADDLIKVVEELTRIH
Procedure: (§1) In a second assay, DF15 cell lines expressing ePL-tagged target protein substrates were used as a model system to monitor protein degradation at 0.75, 1, 1.5, 3, 4, and 24 hours over a concentration range from 1 pM to 10 μM. The proteins evaluated were Ikaros (FIG. 17), Aiolos, and ZFP91. Compound 1 and Compound 2 were both able to degrade the substrate proteins at all time points (Table 9). In a further assay, additional time points were included to monitor the effect of treatment with Compound 1 and Compound 2.
(§2) The depth of substrate protein degradation described by the Y-constant was also measured in this assay against a negative control luciferase inhibitor (CC1071297, Y-constant=0).

[2] = system: CRBN^WT and CRBN^−/− DLBCL cells; assay: Proliferation of CRBN^WT and CRBN^−/− DLBCL cells (six lines)
Text: The activated B-cell (ABC) and MYC/BCL2 double expressor cell lines SU-DHL-2 and RIVA, the germinal center B-cell (GCB) and MYC/BCL2 double hit cell lines (and expressing BCL6) Karpas-422, SU-DHL-10, WSU-DLCL2, and the primary mediastinal B-cell lymphoma (PMBL) cell line Farage were infected with a CAS9 expressing lentivirus construct to generate the control CAS9 expressing cells. The Cas9 cells had wild type cereblon expression (CRBN^WT).
To generate the cereblon knock out cells (CRBN^−/−), the individual control CAS9 cells were infected with a construct expressing a subgenomic single guide RNA (sgRNA). Western blot analysis confirmed the absence of cereblon protein in the CRBN^−/− cells, relative to the levels of the housekeeping protein β-tubulin. The CRBN^WT and CRBN^−/− cells were treated with increasing concentrations of Compound 1 for five days.

[3] = system: SU-DHL-2^CRBN−/− cells; assay: Western blot time- and concentration-response in cereblon knockout cells
Text: However, Compound 1 had no activity in SU-DHL-2^CRBN−/− cells, indicating the requirement of cereblon for induction of apoptosis by Compound 1 in DLBCL (FIG. 5 C).

[4] = system: PBMCs from four healthy donors; assay: Cytokine secretion by anti-CD3 stimulated PBMCs (MSD)
Procedure: Purified PBMCs from four healthy donors were plated on anti-CD3 antibody-coated plates to stimulate T cells and were subsequently treated with either DMSO (control) or Compound 1 at various concentrations for 3, 4, and 7 days. Secretion of cytokines was measured in supernatant fluid from PBMC cultures over time by using mesoscale (MSD) assays. Compound 1 induced IL-2 secretion at all concentrations tested.

[5] = system: SU-DHL-2 cells; assay: Western blot of substrate degradation by each enantiomer, short time-course; settings: SU-DHL-2, within 2 hours at 1 nM
Procedure: Pure samples of each enantiomer were tested for cellular degradation of substrate proteins measured over a short time-course (FIG. 16). SU-DHL-2 cells were treated for 1, 2, and 6 hours with vehicle control (0.1% DMSO), Compound 1 (1, 10, 100 nM), or Compound 2 (1, 10, 100 nM). Western blot analysis was used to evaluate the extent of degradation of the protein substrates Aiolos, Ikaros, and ZFP91. Compound 1 inhibited Aiolos, Ikaros, and ZFP91 in as early as 1 hour of treatment with as little as 1 nM.

[6] = system: KARPAS-422, RIVA, HT, and SU-DHL-4 cell lines; assay: Dose response in cells expressing degradation-resistant mutants of Ikaros, Aiolos, ZFP91; settings: KARPAS-422 and SU-DHL-4
Text: To test whether Ikaros and Aiolos were redundant in promoting the survival and proliferation of DLBCL lines, degradation-resistant mutants of Ikaros (IKZF1-G151A), Aiolos (IKZF3-G152A), and ZFP91 (ZFP91-G405A), along with NanoLuc luciferase (Nluc) as a control, were ectopically and stably expressed in four DLBCL cell lines: KARPAS-422, RIVA, HT, and SU-DHL-4. Dose response curves with Compound 1 indicate that expression of degradation-resistant mutants of Ikaros or Aiolos provided protection from Compound 1 in all four cell lines (FIG. 11). Additionally, the ectopic expression of the degradation-resistant mutants, as well as their protection against Compound 1-induced degradation, was confirmed by immunoblot analysis. […] Beta-actin levels were used as a control. […] However, there were varying degrees of protection observed in the four cell lines.

[7] = molecular target: T2, Ikaros (Homo sapiens, UniProt Q13422+Q96SW2); assay: Ikaros protein level by flow cytometry during ex vivo myeloid differentiation
T2 sequence (Q13422 whole entry): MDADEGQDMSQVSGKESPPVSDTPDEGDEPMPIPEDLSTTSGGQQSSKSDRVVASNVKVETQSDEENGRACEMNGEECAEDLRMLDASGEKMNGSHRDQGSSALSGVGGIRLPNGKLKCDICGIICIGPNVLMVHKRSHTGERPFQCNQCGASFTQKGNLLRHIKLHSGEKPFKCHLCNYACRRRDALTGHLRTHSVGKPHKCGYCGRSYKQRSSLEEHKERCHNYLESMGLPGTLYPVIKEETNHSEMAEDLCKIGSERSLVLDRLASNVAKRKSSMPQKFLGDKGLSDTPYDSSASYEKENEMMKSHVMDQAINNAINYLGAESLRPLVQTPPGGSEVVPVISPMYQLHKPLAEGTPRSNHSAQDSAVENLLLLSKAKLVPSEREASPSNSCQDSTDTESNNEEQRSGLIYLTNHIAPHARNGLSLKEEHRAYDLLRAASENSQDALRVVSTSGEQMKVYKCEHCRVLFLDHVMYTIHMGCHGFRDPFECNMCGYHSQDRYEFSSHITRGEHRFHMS
T2 sequence (Q96SW2 whole entry): as the sequence (Q96SW2 whole entry) above
T2 sequence (Q16531 whole entry partner): as the sequence (Q16531 whole entry partner) above
Text: Ikaros protein levels were monitored during periods of Compound 1 exposure and recovery. Ikaros levels were reduced during Compound 1 exposure and recovered following drug withdrawal in a concentration-dependent manner with no significant differences noted in association with different exposure schedules (FIG. 21; FIG. 22). Ikaros levels began returning to normal after at least 3 days following washout, predating full recovery of maturation of late-stage neutrophil precursors (FIG. 23). […] Accordingly, Ikaros levels in neutrophils can serve as a marker for response to Compound 1.
Ikaros protein level was analyzed by flow cytometry every two or three days. As shown in FIG. 21 and FIG. 22, Ikaros protein was degraded under both Compound 1 treatment schedules (14 days and 5 days) and its expression was restored after drug washout in a concentration dependent manner.

[8] = molecular target: T2, Ikaros; assay: ePL-tagged substrate degradation kinetics in DF15 cells (enantiomer comparison); set-up: expressed in transfected cells; host or cells: DF15 cells; Ikaros Y-constant: scale not given here; settings: for DC50: read-out: Ikaros EC50
Procedure: as §1, §2

O=C1CC[C@H](N2C(=O)c3cccc(NCc4ccc(CN5CC(N6CCOCC6)C5)cc4F)c3C2=O)C(=O)N1 [Compound 1, (S)-2-(2,6-dioxopiperidin-3-yl)-4-((2-fluoro-4-((3-morpholinoazetidin-1-yl)methyl)benzyl)amino)isoindoline-1,3-dione]
ZFP91 Y-constant ([1]; 0.75 hours): 37 | DC50 ([1]; 0.75 hours): 0.54 nM | ZFP91 Y-constant ([1]; 1 hour): 28 | DC50 ([1]; 1 hour): 0.36 nM | ZFP91 Y-constant ([1]; 1.5 hours): 11 | DC50 ([1]; 1.5 hours): 0.36 nM | ZFP91 Y-constant ([1]; 3 hours): 4.9 | DC50 ([1]; 3 hours): 0.19 nM | ZFP91 Y-constant ([1]; 4 hours): 4.3 | DC50 ([1]; 4 hours): 0.17 nM | ZFP91 Y-constant ([1]; 24 hours): 2.0 | DC50 ([1]; 24 hours): 0.15 nM | IC50 ([2]; 120 h, six DLBCL lines, five days, read-out: IC50 in control CAS9 expressing cells (CRBN^WT)): 2.5 to 40 nM | effect of CRBN knock-out on antiproliferative activity ([2]; CRBN^−/− cells): blocked the antiproliferative activity | activity in cereblon knockout cells [3]: no activity | Interleukin-2 secretion by PBMCs ([4]; 0.1 to 100 nM, 3, 4, and 7 days): increased | other monitored cytokines (TNFα, IFNγ, IL-4, IL-13, IL-10, and IL-6) ([4]; 3, 4, and 7 days): Transient or no effect | degradation of each of Aiolos, Ikaros, and ZFP91 [5]: More than 50% | protection by degradation-resistant mutants of Ikaros or Aiolos [6]: nearly complete protection | recovery of Ikaros protein ([7]; Day 19, all concentrations, after 14 days of treatment): complete recovery | time after washout at which Ikaros levels began returning to normal ([7]; neutrophil precursors, following washout): at least 3 days | Ikaros Y-constant ([8]; 0.75 hours): 39.3 | DC50 ([8]; 0.75 hours): 1.25 nM | Ikaros Y-constant ([8]; 1 hour): 27.5 | DC50 ([8]; 1 hour): 1.01 nM | Ikaros Y-constant ([8]; 1.5 hours): 12.5 | DC50 ([8]; 1.5 hours): 0.96 nM | Ikaros Y-constant ([8]; 3 hours): 8.6 | DC50 ([8]; 3 hours): 0.81 nM | Ikaros Y-constant ([8]; 4 hours): 6.8 | DC50 ([8]; 4 hours): 0.99 nM | Ikaros Y-constant ([8]; 24 hours): 2.6 | DC50 ([8]; 24 hours): 0.35 nM
